{
  "source": "ChEMBL document CHEMBL4627357",
  "about": "“An osteoinductive effect of phytol on mouse mesenchymal stem cells (C3H10T1/2) towards osteoblasts” (Bioorg Med Chem Lett, 2020)",
  "key": {"C3H 10T1/2 [1]": {"system": "C3H 10T1/2", "assay": "Induction of osteoblast differentiation in mouse C3H10T1/2 cells assessed as upregulation of miRNA-21a mRNA expression at 40 uM measured after 7 days by RT-qPCR analysis", "type": "functional, cell-based"}, "C3H 10T1/2 [2]": {"system": "C3H 10T1/2", "assay": "Induction of osteoblast differentiation in mouse C3H10T1/2 cells assessed as increase in type-1 collagen mRNA expression at 40 uM measured after 3 days by RT-qPCR analysis", "type": "functional, cell-based"}, "C3H 10T1/2 [3]": {"system": "C3H 10T1/2", "assay": "Upregulation of Runx2 mRNA expression in mouse C3H10T1/2 at 40 uM measured after 72 hrs by SYBR green based RT-qPCR analysis", "type": "functional, cell-based"}, "C3H 10T1/2 [4]": {"system": "C3H 10T1/2", "assay": "Induction of osteoblast differentiation in mouse C3H10T1/2 cells assessed as increase in osteocalcin mRNA expression at 40 uM measured after 3 to 7 days by RT-qPCR analysis", "type": "functional, cell-based"}, "C3H 10T1/2 [5]": {"system": "C3H 10T1/2", "assay": "Induction of osteoblast differentiation in mouse C3H10T1/2 cells assessed as downregulation of Smad7 protein expression at 40 uM measured after 7 days by Western blot analysis", "type": "functional, cell-based"}, "C3H 10T1/2 [6]": {"system": "C3H 10T1/2", "assay": "Induction of osteoblast differentiation in mouse C3H10T1/2 cells assessed as upregulation in Runx2 protein expression at 40 uM measured after 7 days by Western blot analysis", "type": "functional, cell-based"}, "C3H 10T1/2 [7]": {"system": "C3H 10T1/2", "assay": "Induction of osteoblast differentiation in mouse C3H10T1/2 cells assessed as increase in osterix mRNA expression at 40 uM measured after 3 to 7 days by RT-qPCR analysis", "type": "functional, cell-based"}, "C3H 10T1/2 [8]": {"system": "C3H 10T1/2", "assay": "Cytotoxicity against mouse C3H10T1/2 cells assessed as spindle shaped and flattened appearance at 40 uM measured after 72 hrs by FDA staining based assay", "type": "cell-based", "conditions": "c3h 10t1/2, 72 h"}, "C3H 10T1/2 [9]": {"system": "C3H 10T1/2", "assay": "Induction of osteoblast differentiation in mouse C3H10T1/2 cells assessed as increase in type-1 collagen mRNA expression at 40 uM measured after 7 days by RT-qPCR analysis", "type": "functional, cell-based"}, "C3H 10T1/2 [10]": {"system": "C3H 10T1/2", "assay": "Induction of osteoblast differentiation in mouse C3H10T1/2 cells assessed as formation of mineralized nodule at 40 uM measured after 14 days by von-Kossa staining based assay", "type": "functional, cell-based"}, "C3H 10T1/2 [11]": {"system": "C3H 10T1/2", "assay": "Induction of osteoblast differentiation in mouse C3H10T1/2 cells assessed as increase in ALP mRNA expression at 40 uM measured after 3 days by RT-qPCR analysis", "type": "functional, cell-based"}, "[12]": {"assay": "Cytotoxicity against mouse C3H10T1/2 cells assessed as live cells at 40 uM measured after 72 hrs by MUSE cell analyzer (reference value: 95.8%)", "type": "cell-based, C3H 10T1/2", "conditions": "read-out: Activity"}, "C3H 10T1/2 [13]": {"system": "C3H 10T1/2", "assay": "Induction of osteoblast differentiation in mouse C3H10T1/2 cells assessed as increase in ALP mRNA expression at 40 uM measured after 7 days by RT-qPCR analysis", "type": "functional, cell-based"}, "C3H 10T1/2 [14]": {"system": "C3H 10T1/2", "assay": "Induction of osteoblast differentiation in mouse C3H10T1/2 cells assessed as increase in calcium deposition at 40 uM measured after 14 days by alizarin red staining based assay", "type": "functional, cell-based"}, "C3H 10T1/2 [15]": {"system": "C3H 10T1/2", "assay": "Induction of osteoblast differentiation in mouse C3H10T1/2 cells assessed as increase in Runx2 mRNA expression at 40 uM measured after 3 to 7 days by RT-qPCR analysis", "type": "functional, cell-based"}, "C3H 10T1/2 [16]": {"system": "C3H 10T1/2", "assay": "Cytotoxicity against mouse C3H10T1/2 cells assessed as dead cells at 40 uM measured after 72 hrs by MUSE cell analyzer (reference value: 4.2%)", "type": "cell-based", "conditions": "c3h 10t1/2, 72 h"}},
  "note": "Active and inactive are the calls of the source. The rule behind the calls is not given here.",
  "data": [
    {"compound": "C/C(=C\\CO)CCC[C@H](C)CCC[C@H](C)CCCC(C)C", "note": "[TRANS-PHYTOL]", "values": [
      {"measurement": "Activity", "setting": "C3H 10T1/2 [1]", "result": "Active"},
      {"measurement": "Activity", "setting": "C3H 10T1/2 [2]", "result": "inactive"},
      {"measurement": "Activity", "setting": "C3H 10T1/2 [3]", "result": "Active"},
      {"measurement": "Activity", "setting": "C3H 10T1/2 [4]", "result": "inactive"},
      {"measurement": "Activity", "setting": "C3H 10T1/2 [5]", "result": "Active"},
      {"measurement": "Activity", "setting": "C3H 10T1/2 [6]", "result": "Active"},
      {"measurement": "Activity", "setting": "C3H 10T1/2 [7]", "result": "inactive"},
      {"measurement": "Activity", "setting": "C3H 10T1/2 [8]", "result": "Non-Toxic"},
      {"measurement": "Activity", "setting": "C3H 10T1/2 [9]", "result": "Active"},
      {"measurement": "Activity", "setting": "C3H 10T1/2 [10]", "result": "Active"},
      {"measurement": "Activity", "setting": "C3H 10T1/2 [11]", "result": "inactive"},
      {"measurement": "viability at 72 h, 40 µM", "setting": "[12]", "result": 96, "unit": "%"},
      {"measurement": "Activity", "setting": "C3H 10T1/2 [13]", "result": "Active"},
      {"measurement": "Activity", "setting": "C3H 10T1/2 [14]", "result": "Active"},
      {"measurement": "Activity", "setting": "C3H 10T1/2 [15]", "result": "Active"},
      {"measurement": "Activity", "setting": "C3H 10T1/2 [16]", "result": 4, "unit": "%"}
    ]}
  ]
}
